Data published in ChEMBL document CHEMBL3769374, “Novel N-thiazolyl piperazine-1-carboxamide CCR2 antagonists investigation of an unexpected reaction with glutathione” (Medchemcomm, 2015).

Legend:
[1] = target: C-C chemokine receptor type 2 (Homo sapiens, UniProt P41597); test: Antagonist activity at human C-C chemokine receptor type 2 expressed in THP-1 cells assessed as inhibition of CCL2-induced calcium flux preincubated for 10 mins followed by CCL2 addition by Fluo-4 dye based FLIPR assay; assay type: functional, cell-based
C-C chemokine receptor type 2 (Homo sapiens, UniProt P41597), sequence (P41597 whole entry): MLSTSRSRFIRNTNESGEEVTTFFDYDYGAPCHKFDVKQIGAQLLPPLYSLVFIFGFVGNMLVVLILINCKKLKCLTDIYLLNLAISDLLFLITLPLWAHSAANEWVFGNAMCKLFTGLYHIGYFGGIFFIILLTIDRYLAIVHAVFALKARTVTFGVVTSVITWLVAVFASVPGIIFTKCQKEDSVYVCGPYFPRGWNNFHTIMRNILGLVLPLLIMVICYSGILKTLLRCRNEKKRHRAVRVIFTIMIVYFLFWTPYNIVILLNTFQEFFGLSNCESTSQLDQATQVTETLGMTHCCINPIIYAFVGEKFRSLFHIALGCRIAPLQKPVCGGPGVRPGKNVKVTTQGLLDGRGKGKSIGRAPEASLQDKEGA

[2] = Glutathione reactivity at 50 uM measured over 18 hrs by LC-UV method
[3] = target: T1, C-C chemokine receptor type 2 (Rattus norvegicus, UniProt O55193); test: Antagonist activity at rat C-C chemokine receptor type 2 assessed as inhibition of CCL2-induced calcium flux; assay type: functional
T1 sequence (O55193 whole entry): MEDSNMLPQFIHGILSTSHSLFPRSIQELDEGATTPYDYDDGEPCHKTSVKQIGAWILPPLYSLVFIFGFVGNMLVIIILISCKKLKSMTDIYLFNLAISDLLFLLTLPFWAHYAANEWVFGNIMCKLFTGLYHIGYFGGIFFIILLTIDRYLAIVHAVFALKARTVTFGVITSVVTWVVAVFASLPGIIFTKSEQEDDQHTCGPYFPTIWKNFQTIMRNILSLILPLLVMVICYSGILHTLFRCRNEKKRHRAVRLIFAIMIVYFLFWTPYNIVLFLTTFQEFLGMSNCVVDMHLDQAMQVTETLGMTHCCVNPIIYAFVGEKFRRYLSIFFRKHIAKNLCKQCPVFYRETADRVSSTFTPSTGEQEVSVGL

[4] = Glutathione reactivity assessed as half life of compound at 50 uM measured over 18 hrs by LC-UV method; assay type: physicochemical; details: glutathione solution (chemical reactivity test)

IC50 [1]	IC50 [3]	SMILES	Drug metabolism [2]	half-life at 50 µM [4]
0.13 nM	1.3 nM	CC(C)(C)N1CCN[C@@H](C(=O)N2CCN(C(=O)Nc3nc(C(F)(F)F)c(Cl)s3)CC2)C1	Metabolite not detected	–
9.2 nM	–	CC(C)(C)N1CCN[C@@H](C(=O)N2CCN(C(=O)Nc3ncc(F)s3)CC2)C1	Metabolite not detected	–
2.7 nM	–	CC(C)N1CCN[C@@H](C(=O)N2CCN(C(=O)Nc3nc(C(C)(C)C)c(F)s3)CC2)C1	Metabolite not detected	–
1.7 nM	–	CCc1nc(NC(=O)N2CCN(C(=O)[C@H]3CN(C(C)C)CCN3)CC2)sc1Cl	–	–
< 0.45 nM	–	Cc1nc(NC(=O)N2CCN(C(=O)[C@H]3CN(C(C)(C)C)CCN3)CC2)sc1Br	–	–
0.65 nM	–	Cc1nc(NC(=O)N2CCN(C(=O)[C@H]3CN(C(C)(C)C)CCN3)CC2)sc1Cl	–	–
1.1 nM	–	CC(C)(C)N1CCN[C@@H](C(=O)N2CCN(C(=O)Nc3nc(C4CC4)cs3)CC2)C1	Metabolite not detected	–
< 0.45 nM	–	CC(C)(C)N1CCN[C@@H](C(=O)N2CCN(C(=O)Nc3nc(C4CC4)c(Cl)s3)CC2)C1	–	–
7.4 nM	–	CC(C)(C)N1CCN[C@@H](C(=O)N2CCN(C(=O)Nc3ncc(Cl)s3)CC2)C1	Metabolite not detected	–
–	–	O=[N+]([O-])c1ccc(CCl)cc1	–	3.6 h
2.3 nM	–	CC(C)N1CCN[C@@H](C(=O)N2CCN(C(=O)Nc3nc(C(C)(C)C)c(Cl)s3)CC2)C1	–	–
41 nM	–	COc1sc(NC(=O)N2CCN(C(=O)[C@H]3CN(C(C)(C)C)CCN3)CC2)nc1C	Metabolite not detected	–
–	–	CC(=O)Nc1nc(C)c(Br)s1	Metabolite not detected	–
1.2 nM	–	CC(C)c1nc(NC(=O)N2CCN(C(=O)[C@H]3CN(C(C)C)CCN3)CC2)sc1Cl	–	–
